Ends that are not written are not given here.
What was measured:
αvβ3 headpiece = biological target: T1, αvβ3 headpiece (Homo sapiens, UniProt P05106+P06756, M430C/Q293C); assay: Competition binding with FITC-[…] by fluorescence anisotropy, αvβ3 headpiece; settings: FIG. 1D
T1 construct: The αv headpiece (residues 1-594) with M400C mutation was followed by a 3C protease site; β6 headpiece residues 1-474 with I270C or β3 headpiece residues 1-472 with Q267C were followed by the 3C site; 3C protease site (C, cleaved yes); ACID coiled-coil (C, cleaved yes); Strep-II tag (C, cleaved yes); His tag (C, cleaved yes); 3C site (C, cleaved yes); BASE coiled-coil (C, cleaved yes); made in house; host or cells: HEK293s Gnt I- cells
Procedure: (§1) Ligands bind to the integrin headpiece, which contains the α-subunit β-propeller domain and thigh domain, and the β-subunit βI, hybrid, PSI, and EGF1 domain. […] (SEQ ID NO: 68), peptide affinity for the αvβ6 and αvβ3 headpiece was measured with fluorescence anisotropy.
(§2) Binding affinities were calculated as described in Ref. 23. […] Competition binding assays used 200 nM αvβ6 or 4 μM αvβ3 headpiece, 5 nM of fluorescence probe, and competing peptide serially diluted in 3-fold decrement from 500 μM to 0.5 nM.

integrin αvβ6 headpiece = biological target: T2, integrin αvβ6 headpiece (Homo sapiens, UniProt P06756+P18564, I287C/M430C); assay: Saturation binding of fluorescence probe to αvβ6 headpiece by fluorescence anisotropy; settings: buffer at indicated pH, FIG. 2C
T2 construct: The αv headpiece (residues 1-594) with M400C mutation was followed by a 3C protease site; β6 headpiece residues 1-474 with I270C or β3 headpiece residues 1-472 with Q267C were followed by the 3C site; 3C protease site (C, cleaved yes); ACID coiled-coil (C, cleaved yes); Strep-II tag (C, cleaved yes); His tag (C, cleaved yes); 3C site (C, cleaved yes); BASE coiled-coil (C, cleaved yes); made in house; host or cells: HEK293s Gnt I- cells
Procedure: A fluorescence probe for integrin αvβ6, the sequence of which is FITC-[…] (SEQ ID NO: 68), was synthesized. […] By competition binding assay, the affinities of Different Ligands were Measured.
Fluorescence anisotropy was in 150 mM NaCl, 1 mM Mg^2+/Ca^2+, 20 mM HEPES, pH 7.4 or buffer at indicated pH with 5 nM fluorescence probe (FITC-pro-TGF-β3 peptide, FITC-[…] (SEQ ID NO: 68)). Binding affinities were calculated as described in Ref. 23. In saturation binding assays, the anisotropy of the fluorescence probe was measured while αvβ6 headpiece (starting at 2.67 μM) or αvβ3 headpiece (starting at 75 μM) was serially diluted in 3-fold decrements. Competition binding assays used 200 nM αvβ6 or 4 μM αvβ3 headpiece, 5 nM of fluorescence probe, and competing peptide serially diluted in 3-fold decrement from 500 μM to 0.5 nM.

αvβ6 headpiece = biological target: T3, αvβ6 headpiece (Homo sapiens, UniProt P06756+P18564, I287C/M430C); assay: Competition binding with FITC-[…] by fluorescence anisotropy, αvβ6 headpiece; settings: FIG. 1C
T3 construct: The αv headpiece (residues 1-594) with M400C mutation was followed by a 3C protease site; β6 headpiece residues 1-474 with I270C or β3 headpiece residues 1-472 with Q267C were followed by the 3C site; 3C protease site (C, cleaved yes); ACID coiled-coil (C, cleaved yes); Strep-II tag (C, cleaved yes); His tag (C, cleaved yes); 3C site (C, cleaved yes); BASE coiled-coil (C, cleaved yes); made in house; host or cells: HEK293s Gnt I- cells
Procedure: as §1, §2

| Sequence | Fold lower affinity for αvβ3 than for αvβ6 (αvβ3 headpiece) | Effect of pH on affinity of αvβ6 for the peptide (integrin αvβ6 headpiece) | Fold lower affinity for αvβ6 than the pro-TGF-β1/β3 peptides (αvβ6 headpiece) |
| --- | --- | --- | --- |
| GRGDLGRLK [pro-TGF-β3 nonapeptide, GRGDLGRLK (SEQ ID NO: 75)] | 1,000 fold | sharp decrease in affinity between pH 7 and 6 |  |
| TSGDQKTIK [pro-TGF-β2 peptide] |  |  | 1,000 fold |

Source: patent US10273283B2, “Modified integrin polypeptides, modified integrin polypeptide dimers, and uses thereof” (THE CHILDREN'S MEDICAL CENTER CORPORATION, priority 2014, dated 2019)
